Experimental findings from ChEMBL document CHEMBL1157339, “Sundaicumones A and B, polyprenylated acylphloroglucinol derivatives from Calophyllumsundaicum with weak activity against the glucocorticoid receptor” (J Nat Prod, 2006) are described below.

The test addresses T1, Glucocorticoid receptor (Homo sapiens, UniProt P04150).
T1 sequence (P04150 whole entry): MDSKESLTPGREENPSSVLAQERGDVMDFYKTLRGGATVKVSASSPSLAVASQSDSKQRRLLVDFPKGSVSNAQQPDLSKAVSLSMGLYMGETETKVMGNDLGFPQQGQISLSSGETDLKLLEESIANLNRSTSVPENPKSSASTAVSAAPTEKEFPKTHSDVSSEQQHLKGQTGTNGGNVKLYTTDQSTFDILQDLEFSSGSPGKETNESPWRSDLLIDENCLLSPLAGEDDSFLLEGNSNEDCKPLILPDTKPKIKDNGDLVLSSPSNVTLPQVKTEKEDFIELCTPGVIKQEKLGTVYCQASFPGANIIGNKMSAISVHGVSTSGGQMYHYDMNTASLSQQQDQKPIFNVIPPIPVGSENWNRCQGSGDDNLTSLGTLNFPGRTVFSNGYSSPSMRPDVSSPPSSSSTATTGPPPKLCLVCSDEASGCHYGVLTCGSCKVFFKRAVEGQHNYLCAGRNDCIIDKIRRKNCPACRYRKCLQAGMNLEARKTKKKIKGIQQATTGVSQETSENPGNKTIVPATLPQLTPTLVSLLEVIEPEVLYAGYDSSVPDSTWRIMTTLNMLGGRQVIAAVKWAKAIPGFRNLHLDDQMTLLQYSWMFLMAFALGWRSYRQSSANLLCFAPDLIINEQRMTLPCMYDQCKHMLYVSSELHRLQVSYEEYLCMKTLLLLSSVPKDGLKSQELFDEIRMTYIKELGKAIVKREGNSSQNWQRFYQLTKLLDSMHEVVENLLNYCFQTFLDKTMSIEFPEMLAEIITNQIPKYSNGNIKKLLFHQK
The experiment in a line: Activity at glucocorticoid receptor in human A549 cells assessed as effect on GRE promoter response by luciferase reporter assay. Type of test: cell-based. In general terms: In a reporter assay the amount or activity of a reporter protein is the signal.

In general, EC50 refers to the midpoint of the concentration-response curve.

As for `CCCC(CC(=O)O)C1=C2O[C@H](C(C)(C)O)C[C@@]23C[C@H](CC(O)C(C)(C)O)C(C)(C)[C@@](C(=O)C(C)CC)(C1=O)C3=O` (some centres not stated) [SUNDAICUMONE A], the EC50 was 173 µM.
In the case of `CCCC(CC(=O)O)C1=C2O[C@H](C(C)(C)O)C[C@@]23C[C@H](CC=C(C)C)C(C)(C)[C@@](C(=O)C(C)CC)(C1=O)C3=O` (some centres not stated) [SUNDAICUMONE B], the EC50 was found to be 75 µM.
